# Experimental data reported in patent EP4483866A1, “PHARMACEUTICAL COMPOSITIONS FOR THE TREATMENT OR PREVENTION OF CANCER” (Makrolife Biotech GmbH, priority 2023, dated 2025).
# How the values were obtained:
# [1] = tested on: HepG2, HUVEC, PaCA-2, MDA-MB-231, MCF-7, T24, AsPc-1, Panc-1; test: Cell Viability Assay (MTT), tumor cells with MLB007R1 polarized macrophages; assay type: cell-based, human; settings: for cell death: 60 µg/ml, all tumor models
# Text: The following tumor models and cell lines have been used to proof the anti-tumoral properties of the derivatives of the invention: • Diagram A: HepG2 (human liver cancer cells), • Diagram B: HUVEC (human umbilical vein endothelial cells, • Diagram C: PaCA-2 (human pancreatic cancer cells), • Diagram D: MDA-MB-231 (highly aggressive, invasive and poorly differentiated triple-negative human breast cancer cells), • Diagram E: MCF-7 (human breast cancer cells), • Diagram F: T24 (human urinary bladder cancer cells), • Diagram G: AsPc-1 (human pancreatic tumor cells) and • Diagram H: Panc-1 (human pancreatic cancer cells).
# In the examples, the resveratrol derivative MLB007R1 was applied at concentrations of 0 µg/ml, 10 µg/ml, 20 µg/ml, 40 µg/ml and 60 µg/ml. As a control, an underivatized agent was used at a concentration of 60 µg/ml. The dead cells were measured in percentage after 0, 12, 24 and 36 hours.
# Tumor cell lines HUVEC (human umbilical vein endothelial cells), paCA-2 (human pancreatic cancer cells), MDA-MB-231 (highly aggressive, invasive and poorly differentiated triple-negative breast cancer cells), HepG2 (human liver cancer cells), MCF-7 (breast cancer cells), T24 (human urinary bladder cancer cells), AsPc-1 (human pancreatic tumor cells), Panc-1 (human pancreatic cancer cells) were seeded in 96-well plates ([…]) and divided into two groups: the untreated control group and the active compound resveratrol derivative treated group. Cells in the normal group were incubated under normal growth conditions. In the resveratrol derivative (MLB007R1) treated group, the cells were pre-incubated with differentiated and polarized macrophages (5x10^5 cells/well) for 24 hours with different final concentrations of the resveratrol derivative.
# Wells were then washed three times with phosphate buffered saline (PBS) and incubated again for 4 hours with […] RPMI 1640 containing 10% fetal bovine serum. The medium was then replaced with fresh medium serially incubated with different concentrations of the lead compound and incubated with the macrophages, and the plates were incubated for 12, 24, and 36 hours. The medium containing the resveratrol derivative polarized macrophages was replaced every 12 h with freshly prepared medium. Wells were then washed three times with PBS and incubated again for 4 h, adding […] of RPMI 1640 and […] of MTT solution (5 mg/mL). After removal of the culture medium, […] of DMSO was added to dissolve the precipitate, and the absorbance at 570 nm of the resulting solutions was measured using a CODA Automated EIA Analyzer (Bio-Rad Laboratories, Hercules, CA, USA).
# The cytotoxicity of the resveratrol derivative compound was evaluated on all cancer cell lines using the MTT method.
# MCF-7, HUVEC, HepG2 = test: Determination of cell growth and viability (cell count, trypan blue exclusion); assay type: cell-based, human
# Procedure: The tumor models utilized in these experiments are as follows: • Diagram A: MCF-7 (breast cancer cells), • Diagram B: HUVEC (human umbilical vein endothelial cells) and • Diagram C: HepG2 (human liver cancer cells).
# Cell growth of an untreated and resveratrol derivative (MLB007R1) treated cell culture was compared. Tumor cell lines (MCF-7 (breast cancer cells), HUVEC (human umbilical vein endothelial cells) and HepG2 (human liver cancer cells)) were cultured in RPMI 1640 cell medium and exposed to 60 µg/ml resveratrol derivative polarized macrophages (10 000/ well). Cell growth, cell cycle disruption and apoptosis were assessed using the trypan blue exclusion method.
# Cells were seeded in 24-well tissue culture plates (Falcon) at a concentration of 1×10^5 cells/ml and allowed to adhere overnight. […] Cell growth and viability were assessed every 12 hours. Trypsinized cells were manually counted using a hemocytometer, and cell viability was determined using the trypan blue dye exclusion assay.
# Initially, cell number was measured after incubation to 200 000 cells per culture.
# The kinetics of cell growth on human MCF-7 breast cancer cells were cultured and measured for 12, 24 and 36 hours in culture medium containing the indicated drug-polarized macrophages. […] Tumor cell viability and cell growth were determined using the trypan blue assay and cell count, respectively. […]
# [2] = tested on: ovarian cancer cells (cell line A2780); test: Viability and apoptosis of ovarian cancer cells with polarized macrophages (interference light microscopy, PI); assay type: cell-based, human
# Procedure: Diagrams A and C show as a control the cells after treatment with DMSO.
# Diagrams B and D show the cells treated with 60 µg/ml MLB007R1 after 12 h.
# The present study explores the response of ovarian cancer cells to MLB007R1. MLB007R1 macrophages inhibited growth and induced death in human ovarian cancer cell lines. In a further course, A2780 cells were co-incubated with MLB007R1 derivative polarized macrophages and treated. MLB007R1 induces cell death and inhibits ovarian cancer cell growth. Treatment of A2780 cells with MLB007R1 induced cell death after 12 hours. Proliferation of A2780 cultures treated with MLB007R1 was analyzed over 12 hours of continuous treatment.
# Cells were plated out and 60 µg/ml MLB007R1 treated macrophages were added to the culture medium 12 h after plating out (24 h preincubation period). The percentage of apoptotic cells was determined at the indicated time points by propidium iodide (PI) staining on semipermeabilized cells as previously described. In this assay, apoptotic cells are identified by hypodiploid DNA content resulting from DNA fragmentation. To assess viability, intact cells were harvested, stained with PI, and analyzed for their plasma membrane permeability to PI by flow cytometry. Cell number was determined by interference light microscopy. The ovarian cancer cells (A2780) were incubated with 60µg/ml MLB007R1 concentration treated macrophages. […]
# MCF-7 cells = test: Induction of apoptosis assessed by confocal fluorescence microscopy (PI staining); assay type: cell-based, human; settings: for cell death: 12h
# Procedure: To confirm the flow cytometry results, the induction of apoptotic cell death by our MLB007R1 compound was examined by confocal fluorescence microscopy. MCF-7 tumor cells were treated with the compound-polarized macrophages (10 000/well) at concentrations of 0, 20, 40, and 60 µg/ml for 12 hours. Induction of apoptotic cell death was accompanied by characteristic ultrastructural changes, such as chromatin condensation, nuclear fragmentation, and collapse of the cell into membrane-bound apoptotic bodies.
# Confocal laser scanning microscopy (CLSM). Analysis of apoptosis-like morphological changes was performed on cells grown on coverslips and fixed with 4% paraformaldehyde in PBS (pH 7.4) for 10 minutes at room temperature (RT). After washing in PBS, the samples were stained for nuclear labeling with 2 µg/ml PI and 0.1 mg/ml RNase for 5 minutes at RT. Coverslips were mounted on glass slides in the presence of Glycerol/PBS at a ratio of 4:1 and observed with a LEICA TCS 4D confocal laser scanning microscope equipped with an argon/cripton laser and oil immersion objectives. The excitation and emission wavelengths were 488 and 590 nm, respectively. The images were recorded in pseudocolor.
# HepG2 = settings: after 24 hours at 60 µM; cited from earlier work
Compound,cell death ([1]; after 12h),cell death ([1]; after 24 hours),cell death ([1]; after 36h),"number of tumor cells (MCF-7, HUVEC, HepG2; 60 µg/ml, after 12 hours, polarized macrophages)","decreased cell number (MCF-7, HUVEC, HepG2; after only 12 hours of incubation)",proliferation of A2780 cultures ([2]; 12 hours of continuous treatment),"ovarian cancer cells killed by polarized macrophages ([2]; macrophages incubated in 60µg/ml, 12 h)","apoptosis induction (MCF-7 cells; 20 µg/ml (B), 12 hours)","number of apoptotic cells (MCF-7 cells; 40 (C) and 60 (D) µg/ml, 12 hours)",cell death (MCF-7 cells; Diagram B: 20 µg/ml MLB007R1 treated macrophages) [%],cell death (MCF-7 cells; Diagram C: 20 µg/ml MLB007R1 treated macrophages) [%],cell death (MCF-7 cells; Diagram D: 60 µg/ml MLB007R1 treated macrophages) [%],"effect on tumor cells ([1]; control at 60 µg/ml, compared with resveratrol derivative)",decreased HepG2 cell number (HepG2)
"C=COC(=O)COc1ccc(C=Cc2cc(OCC(=O)OC=C)cc(OCC(=O)OC=C)c2)cc1 [MLB007R1, divinyl 2,2'-((5-(4-(2-oxo-2-(vinyloxy)ethoxy)styryl)-1,3-phenylene)bis(oxy))diacetate]",70-85%,85-92%,approximately 96%,dramatic decrease,more than 90%,No further growth occurred,more than 80%,No to little apoptosis induction,increased the number of apoptotic cells,> 50,> 65,> 80,–,–
"Oc1ccc(C=Cc2cc(O)cc(O)c2)cc1 [resveratrol, 3,4',5-trihydroxy-stilbene, reference compound]",–,–,–,–,–,–,–,–,–,–,–,–,significantly higher,approximately 70%
